tested on: HCC95; assay: Cell viability dose-response, HCC95; assay type: cell-based; settings: Homo sapiens, Tables 3 and 4, read-out: IC50 (uM) vs indicated non-small cell lung cancer cell line HCC95
Method: (§1) FIG. 6A. […] Cell viability is plotted vs. compound concentration. Compound was added to cells plated at 15% confluence in 96-well plates in RPMI-1640 media supplemented with 5% Fetal Bovine Serum and 2 mM L-Glutamine. After 4 days of incubation, ATP levels were measured using Cell Titer Glo (Promega). Data are presented as the average of 2 replicates ±SEM.
(§2) Selectivity may be measured by the half maximal inhibitory concentration (IC50), which, as used herein, is a measure of the effectiveness of a compound in killing cells. This quantitative measure indicates how much of a particular compound is needed to kill a particular cell population by half (e.g., as indicated by the amount of ATP). […] The IC50 can be determined by constructing a dose-response curve. The lower the IC50, the higher the potency, and the greater the difference between IC50 values for different cell lines (e.g., sensitive lines vs. insensitive lines, and sensitive lines vs. normal lines) the greater the selectivity. […]
(§3) With this information, we synthesized and tested a series of small molecules derived in conception from the oxalamide and chromone scaffold including N-acyl ureas, as shown in Tables 6-8. Each compound was tested in a 12-point dose-response study starting at 50 micromolar and decreasing in 3-fold increments to sub-nanomolar concentrations, in duplicate. Additionally, one or more additional cell line was tested in the same way.

SMILES	IC50 [µM]
CCN(CC)c1ccc(C(=O)Nc2nc3ccc4ccccc4c3s2)cc1 [SW018825]	2.23
NC(=O)c1c(NC(=O)COc2ccccc2)sc2c1CCCC2 [SW119324]	28.5
O=C(Nc1nc2ccc(F)cc2s1)c1sc2ccccc2c1Cl [SW147703]	32.4
CCOc1cc(OCC)cc(C(=O)Nc2nc3ccc(OC)cc3s2)c1 [SW202776-1]	8.15
CCOC(=O)c1c(NC(=O)c2ccc(F)cc2)sc2c1CCCC2 [SW202859-1]	31.4

tested on: HCC4017; assay: Cell viability dose-response, HCC4017; assay type: cell-based, human; settings: Homo sapiens, HCC4017, Tables 3 and 4; read-out: IC50 (uM) vs indicated non-small cell lung cancer cell line HCC4017
Method: as §1, §2, §3

SMILES	IC50 [µM]
COc1ccccc1NC(=O)c1sc2ccccc2c1Cl [SW004989]	249
O=C(Nc1ccc(F)cc1)c1sc2ccccc2c1Cl [SW006505]	262
O=C(Nc1cccc(NC(=O)c2sc3ccccc3c2Cl)c1)c1ccco1 [SW023008-2]	809
CCOC(=O)c1c(NC(=O)c2ccc([N+](=O)[O-])cc2)sc2c1CCCC2 [SW108364-2]	35.2
NC(=O)c1ccccc1NC(=O)c1sc2ccccc2c1Cl [SW119800]	467
O=C(Nc1ccccc1N1CCCC1)c1sc2ccccc2c1Cl [SW174698]	403
O=C(Nc1cccc(F)c1)c1sc2ccccc2c1Cl [SW202550]	17.3
Cc1ccc(NC(=O)c2sc3ccccc3c2Cl)c(F)c1 [SW202551]	390

same assay, conditions: Tables 3 and 4; read-out: IC50 (uM) vs indicated non-small cell lung cancer cell line HCC4017

SMILES	IC50 [µM]
O=C(Nc1cccc(NC(=O)c2sc3ccccc3c2Cl)c1)c1cccc(Cl)c1 [SW023441-2]	46

tested on: H1819; assay: Cell viability dose-response, H1819; assay type: cell-based, human; settings: Homo sapiens, NCI-H1819, 12-point dose-response starting at 50 micromolar, 3-fold increments, in duplicate; read-out: toxicity data, H1819
Method in brief: (§4)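 Cells plated at 15% confluence in RPMI-1640 with 5% FBS and 2 mM L-glutamine, treated with compound in a 12-point, 3-fold dilution series from 50 micromolar, in duplicate. ATP measured by Cell Titer Glo after 4 days; IC50 taken from the dose-response curve.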

SMILES	IC50 [µM]
COc1ccc(CNC(=O)C(=O)NCc2ccc(OC)cc2)cc1 [SW207019-1]	≥ 49.5
COc1ccc(CCNC(=O)C(=O)Nc2ccc(C)c(Cl)c2)cc1 [SW207020-1]	≥ 49.5
COc1ccc(CCNC(=O)C(=O)Nc2cccc(C#N)c2)cc1 [SW207021-1]	≥ 49.5

same assay, conditions: Homo sapiens, NCI-H1819, Tables 3 and 4; read-out: IC50 (uM) vs indicated non-small cell lung cancer cell line H1819

SMILES	IC50 [µM]
COc1ccc2nc(NC(=O)c3ccc(Br)cc3)sc2c1 [SW000931]	308
COc1ccc(C(=O)Nc2nc3ccccc3s2)cc1 [SW003087]	37.4
COc1ccccc1NC(=O)c1sc2ccccc2c1Cl [SW004989]	43.7

tested on: HBEC30KT; assay: Cell viability (ATP, Cell Titer Glo, 4 days), HBEC30KT; assay type: cell-based, human; settings: Homo sapiens, 12-point dose-response starting at 50 micromolar, 3-fold increments, in duplicate; read-out: toxicity data, HBEC30KT
Method: as §1, §2

SMILES	IC50 [µM]
COc1ccc(CNC(=O)C(=O)NCc2ccc(OC)cc2)cc1 [SW207019-1]	49.5
COc1ccc(CCNC(=O)C(=O)Nc2ccc(C)c(Cl)c2)cc1 [SW207020-1]	49.5
COc1ccc(CCNC(=O)C(=O)Nc2cccc(C#N)c2)cc1 [SW207021-1]	49.5

same assay, conditions: Homo sapiens, Tables 3 and 4; read-out: HBEC30KT IC50

SMILES	IC50 [µM]
COc1ccc2nc(NC(=O)c3ccc(Br)cc3)sc2c1 [SW000931]	360
COc1ccc(C(=O)Nc2nc3ccccc3s2)cc1 [SW003087]	100
O=C(Nc1ccc(F)cc1)c1sc2ccccc2c1Cl [SW006505]	63.9
O=C(Nc1cccc(NC(=O)c2sc3ccccc3c2Cl)c1)c1ccco1 [SW023008-2]	82.5
O=C(Nc1cccc(NC(=O)c2sc3ccccc3c2Cl)c1)c1cccc(Cl)c1 [SW023441-2]	31.8
CCOC(=O)c1c(NC(=O)c2ccc([N+](=O)[O-])cc2)sc2c1CCCC2 [SW108364-2]	35.2
NC(=O)c1c(NC(=O)COc2ccccc2)sc2c1CCCC2 [SW119324]	10.4
NC(=O)c1ccccc1NC(=O)c1sc2ccccc2c1Cl [SW119800]	85.4
O=C(Nc1nc2ccc(F)cc2s1)c1sc2ccccc2c1Cl [SW147703]	33.3
O=C(Nc1ccccc1N1CCCC1)c1sc2ccccc2c1Cl [SW174698]	4950
O=C(Nc1cccc(F)c1)c1sc2ccccc2c1Cl [SW202550]	105
CCOC(=O)c1c(NC(=O)c2ccc(F)cc2)sc2c1CCCC2 [SW202859-1]	38.2

tested on: H2009; assay: Cell viability dose-response, H2009; assay type: cell-based, human; settings: Homo sapiens, NCI-H2009; Tables 3 and 4; read-out: IC50 (uM) vs indicated non-small cell lung cancer cell line H2009
Method in brief: (§5)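 Cells were plated at 15% confluence in RPMI-1640 with 5% FBS and 2 mM L-glutamine, then exposed to compound for 4 days. Viability was read as cellular ATP by CellTiter-Glo luminescence. Values are means of 2 replicates ±SEM, and IC50 comes from the dose-response curve.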

SMILES	IC50 [µM]
COc1ccc(C(=O)Nc2nc3ccccc3s2)cc1 [SW003087]	31.3
COc1ccccc1NC(=O)c1sc2ccccc2c1Cl [SW004989]	> 8
CCOC(=O)c1c(NC(=O)c2ccc([N+](=O)[O-])cc2)sc2c1CCCC2 [SW108364-2]	15.8
NC(=O)c1c(NC(=O)COc2ccccc2)sc2c1CCCC2 [SW119324]	0.881
O=C(Nc1nc2ccc(F)cc2s1)c1sc2ccccc2c1Cl [SW147703]	34.5
CCOc1cc(OCC)cc(C(=O)Nc2nc3ccc(OC)cc3s2)c1 [SW202776-1]	15.3

tested on: H1155; assay: Cell viability dose-response, H1155; assay type: cell-based; settings: Homo sapiens, NCI-H1155; Tables 3 and 4; read-out: IC50 (uM) vs indicated non-small cell lung cancer cell line H1155
Method: as §1, §2, §3

SMILES	IC50 [µM]
NC(=O)c1c(NC(=O)COc2ccccc2)sc2c1CCCC2 [SW119324]	44.5
O=C(Nc1nc2ccc(F)cc2s1)c1sc2ccccc2c1Cl [SW147703]	13.3
CCOc1cc(OCC)cc(C(=O)Nc2nc3ccc(OC)cc3s2)c1 [SW202776-1]	46.2

tested on: HCC44; assay: Cell viability dose-response, HCC44; assay type: cell-based, human; settings: Homo sapiens, HCC44, Tables 3 and 4; read-out: IC50 (uM) vs indicated non-small cell lung cancer cell line HCC44
Method in brief: as §5

SMILES	IC50 [µM]
COc1ccccc1NC(=O)c1sc2ccccc2c1Cl [SW004989]	56.8
O=C(Nc1ccc(F)cc1)c1sc2ccccc2c1Cl [SW006505]	0.657
O=C(Nc1cccc(NC(=O)c2sc3ccccc3c2Cl)c1)c1ccco1 [SW023008-2]	105
CCOC(=O)c1c(NC(=O)c2ccc([N+](=O)[O-])cc2)sc2c1CCCC2 [SW108364-2]	35.2
NC(=O)c1c(NC(=O)COc2ccccc2)sc2c1CCCC2 [SW119324]	34.4
NC(=O)c1ccccc1NC(=O)c1sc2ccccc2c1Cl [SW119800]	206
O=C(Nc1nc2ccc(F)cc2s1)c1sc2ccccc2c1Cl [SW147703]	37.5
O=C(Nc1ccccc1N1CCCC1)c1sc2ccccc2c1Cl [SW174698]	3.06
O=C(Nc1cccc(F)c1)c1sc2ccccc2c1Cl [SW202550]	0.566
Cc1ccc(NC(=O)c2sc3ccccc3c2Cl)c(F)c1 [SW202551]	1.42

same assay, conditions: Tables 3 and 4; read-out: IC50 (uM) vs indicated non-small cell lung cancer cell line HCC44

SMILES	IC50 [µM]
COc1ccccc1NC(=O)c1sc2ccccc2c1Cl [SW004989]	38.7
O=C(Nc1cccc(NC(=O)c2sc3ccccc3c2Cl)c1)c1cccc(Cl)c1 [SW023441-2]	27.7

tested on: H2122; assay: Cell viability dose-response, H2122; assay type: cell-based, human; settings: Homo sapiens, NCI-H2122, 12-point dose-response starting at 50 micromolar, 3-fold increments, in duplicate; read-out: toxicity data, H2122
Method in brief: as §4

SMILES	IC50 [µM]
COc1ccc(CNC(=O)C(=O)NCc2ccc(OC)cc2)cc1 [SW207019-1]	≥ 49.5
COc1ccc(CCNC(=O)C(=O)Nc2ccc(C)c(Cl)c2)cc1 [SW207020-1]	0.602
COc1ccc(CCNC(=O)C(=O)Nc2cccc(C#N)c2)cc1 [SW207021-1]	0.407

same assay, conditions: Homo sapiens, NCI-H2122, Tables 3 and 4; read-out: IC50 (uM) vs indicated non-small cell lung cancer cell line H2122

SMILES	IC50 [µM]
COc1ccc2nc(NC(=O)c3ccc(Br)cc3)sc2c1 [SW000931]	2.62
COc1ccc(C(=O)Nc2nc3ccccc3s2)cc1 [SW003087]	2.62
COc1ccccc1NC(=O)c1sc2ccccc2c1Cl [SW004989]	0.801
O=C(Nc1ccc(F)cc1)c1sc2ccccc2c1Cl [SW006505]	1.7
CCN(CC)c1ccc(C(=O)Nc2nc3ccc4ccccc4c3s2)cc1 [SW018825]	0.129
O=C(Nc1cccc(NC(=O)c2sc3ccccc3c2Cl)c1)c1ccco1 [SW023008-2]	1.27
CCOC(=O)c1c(NC(=O)c2ccc([N+](=O)[O-])cc2)sc2c1CCCC2 [SW108364-2]	5.92
NC(=O)c1ccccc1NC(=O)c1sc2ccccc2c1Cl [SW119800]	2.66
O=C(Nc1nc2ccc(F)cc2s1)c1sc2ccccc2c1Cl [SW147703]	3.3
O=C(Nc1ccccc1N1CCCC1)c1sc2ccccc2c1Cl [SW174698]	5.12
O=C(Nc1cccc(F)c1)c1sc2ccccc2c1Cl [SW202550]	1.91
Cc1ccc(NC(=O)c2sc3ccccc3c2Cl)c(F)c1 [SW202551]	1.36

same assay, conditions: Tables 3 and 4; read-out: IC50 (uM) vs indicated non-small cell lung cancer cell line H2122

SMILES	IC50 [µM]
COc1ccccc1NC(=O)c1sc2ccccc2c1Cl [SW004989]	1.02
O=C(Nc1cccc(NC(=O)c2sc3ccccc3c2Cl)c1)c1cccc(Cl)c1 [SW023441-2]	0.473

tested on: H1993; assay: Cell viability dose-response, H1993; assay type: cell-based; settings: Homo sapiens, NCI-H1993; Tables 3 and 4; read-out: IC50 (uM) vs indicated non-small cell lung cancer cell line H1993
Method: as §1, §2, §3

SMILES	IC50 [µM]
COc1ccccc1NC(=O)c1sc2ccccc2c1Cl [SW004989]	> 5
CCN(CC)c1ccc(C(=O)Nc2nc3ccc4ccccc4c3s2)cc1 [SW018825]	47.5
CCOC(=O)c1c(NC(=O)c2ccc([N+](=O)[O-])cc2)sc2c1CCCC2 [SW108364-2]	23.4
NC(=O)c1c(NC(=O)COc2ccccc2)sc2c1CCCC2 [SW119324]	> 8
O=C(Nc1nc2ccc(F)cc2s1)c1sc2ccccc2c1Cl [SW147703]	13.5
CCOC(=O)c1c(NC(=O)c2ccc(F)cc2)sc2c1CCCC2 [SW202859-1]	47.1

tested on: H2073; assay: Cell viability dose-response, H2073; assay type: cell-based, human; settings: Homo sapiens, NCI-H2073, Tables 3 and 4; read-out: IC50 (uM) vs indicated non-small cell lung cancer cell line H2073
Method: as §1, §2, §3

SMILES	IC50 [µM]
COc1ccc2nc(NC(=O)c3ccc(Br)cc3)sc2c1 [SW000931]	2.33
COc1ccc(C(=O)Nc2nc3ccccc3s2)cc1 [SW003087]	11.7
COc1ccccc1NC(=O)c1sc2ccccc2c1Cl [SW004989]	0.052
CCN(CC)c1ccc(C(=O)Nc2nc3ccc4ccccc4c3s2)cc1 [SW018825]	0.424
CCOC(=O)c1c(NC(=O)c2ccc([N+](=O)[O-])cc2)sc2c1CCCC2 [SW108364-2]	24.3
O=C(Nc1nc2ccc(F)cc2s1)c1sc2ccccc2c1Cl [SW147703]	1.12
CCOc1cc(OCC)cc(C(=O)Nc2nc3ccc(OC)cc3s2)c1 [SW202776-1]	4.56

From patent US9789096B2, “Methods and compositions for selective and targeted cancer therapy” (Board of Regents of the University of Texas System, priority 2013, dated 2017)
